Results reported in PubChem BioAssay AID602353 (The Scripps Research Institute Molecular Screening Center, 2012).
Calls of active or inactive are those of the source. The rule behind the calls is not given here.

What was measured:
Assay in all cases: mouse tissue hydrolase off-target engagement – ABPP MudPIT, LC-MS, in vivo study for DAGLb inhibitor project, late-stage follow-up (AID 602353)
Abhd10 = conditions: FP-probe spectral counts, vehicle vs compound significance, stronger effect = lower value
Abhd11 = conditions: FP-probe spectral counts, stronger effect = lower value
Abhd12 = conditions: FP-probe spectral counts, stronger effect = lower value
Abhd6 = conditions: FP-probe spectral counts, vehicle vs compound significance, stronger effect = lower value
Acot1 = conditions: FP-probe spectral counts, stronger effect = lower value
Acot2 = conditions: FP-probe spectral counts, stronger effect = lower value
[1] = target: Acyl-protein thioesterase 1 (Mus musculus) (UniProt P97823); conditions: FP-probe spectral counts, Lypla1, stronger effect = lower value
Aoah = conditions: FP-probe spectral counts, stronger effect = lower value
Apeh = conditions: FP-probe spectral counts, stronger effect = lower value
Ctsa = conditions: FP-probe spectral counts, stronger effect = lower value
Ctsg = conditions: FP-probe spectral counts, stronger effect = lower value
Daglb = conditions: FP-probe spectral counts, vehicle vs compound significance, stronger effect = lower value
[2] = target: Diacylglycerol lipase-beta (Mus musculus) (UniProt Q91WC9); conditions: FP-probe spectral counts, Daglb, stronger effect = lower value
Dpp4 = conditions: FP-probe spectral counts, stronger effect = lower value
Dpp7 = conditions: FP-probe spectral counts, stronger effect = lower value
Dpp8 = conditions: FP-probe spectral counts, stronger effect = lower value
Dpp9 = conditions: FP-probe spectral counts, stronger effect = lower value
Elane = conditions: FP-probe spectral counts, stronger effect = lower value
Fam108b = conditions: FP-probe spectral counts, stronger effect = lower value
Fasn = conditions: FP-probe spectral counts, stronger effect = lower value
Iah1 = conditions: FP-probe spectral counts, stronger effect = lower value
Kiaa1363 = conditions: FP-probe spectral counts, stronger effect = lower value
Lipe = conditions: FP-probe spectral counts, stronger effect = lower value
Lpl = conditions: FP-probe spectral counts, stronger effect = lower value
Lypla1 = conditions: FP-probe spectral counts, vehicle vs compound significance, stronger effect = lower value
Lypla2 = conditions: FP-probe spectral counts, stronger effect = lower value
Magl = conditions: FP-probe spectral counts, stronger effect = lower value
[3] = target: Monoacylglycerol lipase ABHD6 (Mus musculus) (UniProt Q8R2Y0); conditions: FP-probe spectral counts, stronger effect = lower value
Pafah1b2 = conditions: FP-probe spectral counts, stronger effect = lower value
Pafah1b3 = conditions: FP-probe spectral counts, stronger effect = lower value
Pafah2 = conditions: FP-probe spectral counts, vehicle vs compound significance, stronger effect = lower value
[4] = target: Palmitoyl-protein thioesterase ABHD10, mitochondrial (Mus musculus) (UniProt Q6PE15); conditions: FP-probe spectral counts, stronger effect = lower value
Parl = conditions: FP-probe spectral counts, stronger effect = lower value
Pla2g15 = conditions: FP-probe spectral counts, stronger effect = lower value
Pla2g7 = conditions: FP-probe spectral counts, vehicle vs compound significance, stronger effect = lower value
[5] = target: Platelet-activating factor acetylhydrolase (Mus musculus) (UniProt Q60963); conditions: FP-probe spectral counts, Pla2g7, stronger effect = lower value
[6] = target: Platelet-activating factor acetylhydrolase 2, cytoplasmic (Mus musculus) (UniProt Q8VDG7); conditions: FP-probe spectral counts, Pafah2, stronger effect = lower value
Pnpla6 = conditions: FP-probe spectral counts, stronger effect = lower value
Pnpla7 = conditions: FP-probe spectral counts, stronger effect = lower value
Pnpla8 = conditions: FP-probe spectral counts, stronger effect = lower value
Prcp = conditions: FP-probe spectral counts, stronger effect = lower value
[7] = vehicle vs compound significance

Sequence of Monoacylglycerol lipase ABHD6 (Mus musculus) (Q8R2Y0 whole entry, looked up): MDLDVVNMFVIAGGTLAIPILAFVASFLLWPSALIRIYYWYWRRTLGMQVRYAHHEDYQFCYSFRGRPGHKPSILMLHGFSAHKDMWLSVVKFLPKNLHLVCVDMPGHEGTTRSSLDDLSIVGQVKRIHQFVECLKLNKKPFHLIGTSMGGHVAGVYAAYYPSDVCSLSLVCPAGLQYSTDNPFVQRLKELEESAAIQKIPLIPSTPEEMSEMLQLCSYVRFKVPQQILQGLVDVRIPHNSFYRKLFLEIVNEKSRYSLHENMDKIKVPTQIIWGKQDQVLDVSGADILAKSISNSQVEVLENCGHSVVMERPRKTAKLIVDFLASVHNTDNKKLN
Sequence of Platelet-activating factor acetylhydrolase (Mus musculus) (Q60963 whole entry, looked up): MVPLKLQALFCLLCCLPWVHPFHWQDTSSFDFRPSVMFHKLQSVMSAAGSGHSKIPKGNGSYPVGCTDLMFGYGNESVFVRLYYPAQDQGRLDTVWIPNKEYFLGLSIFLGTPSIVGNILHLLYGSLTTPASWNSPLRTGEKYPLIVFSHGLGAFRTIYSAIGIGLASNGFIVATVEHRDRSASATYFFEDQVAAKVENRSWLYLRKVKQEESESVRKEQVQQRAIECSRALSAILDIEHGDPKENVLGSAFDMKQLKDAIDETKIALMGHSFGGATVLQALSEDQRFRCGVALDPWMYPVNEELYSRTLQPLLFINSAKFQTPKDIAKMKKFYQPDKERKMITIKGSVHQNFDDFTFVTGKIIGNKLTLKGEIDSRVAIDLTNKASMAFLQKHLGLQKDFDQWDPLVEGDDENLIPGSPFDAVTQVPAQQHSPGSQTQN
Sequence of Platelet-activating factor acetylhydrolase 2, cytoplasmic (Mus musculus) (Q8VDG7 whole entry, looked up): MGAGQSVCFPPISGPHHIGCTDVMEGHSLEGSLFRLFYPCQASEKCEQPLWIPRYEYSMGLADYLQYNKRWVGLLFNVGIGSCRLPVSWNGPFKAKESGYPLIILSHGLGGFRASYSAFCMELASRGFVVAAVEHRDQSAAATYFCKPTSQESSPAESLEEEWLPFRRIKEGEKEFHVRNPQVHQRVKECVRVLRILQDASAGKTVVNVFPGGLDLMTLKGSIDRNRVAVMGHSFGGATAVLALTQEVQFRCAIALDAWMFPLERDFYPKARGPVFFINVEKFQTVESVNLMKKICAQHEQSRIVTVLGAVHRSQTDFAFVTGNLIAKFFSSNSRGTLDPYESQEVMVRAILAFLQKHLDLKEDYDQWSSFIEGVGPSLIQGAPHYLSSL
Sequence of Palmitoyl-protein thioesterase ABHD10, mitochondrial (Mus musculus) (Q6PE15 whole entry, looked up): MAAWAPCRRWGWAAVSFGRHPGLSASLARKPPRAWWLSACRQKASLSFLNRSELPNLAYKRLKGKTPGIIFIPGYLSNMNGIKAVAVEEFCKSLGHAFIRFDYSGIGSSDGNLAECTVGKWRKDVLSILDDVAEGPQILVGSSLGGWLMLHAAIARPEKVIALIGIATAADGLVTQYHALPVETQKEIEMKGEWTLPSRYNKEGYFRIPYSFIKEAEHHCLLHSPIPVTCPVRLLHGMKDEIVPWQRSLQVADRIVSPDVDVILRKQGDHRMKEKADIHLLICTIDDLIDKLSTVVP
Sequence of Diacylglycerol lipase-beta (Mus musculus) (Q91WC9 whole entry, looked up): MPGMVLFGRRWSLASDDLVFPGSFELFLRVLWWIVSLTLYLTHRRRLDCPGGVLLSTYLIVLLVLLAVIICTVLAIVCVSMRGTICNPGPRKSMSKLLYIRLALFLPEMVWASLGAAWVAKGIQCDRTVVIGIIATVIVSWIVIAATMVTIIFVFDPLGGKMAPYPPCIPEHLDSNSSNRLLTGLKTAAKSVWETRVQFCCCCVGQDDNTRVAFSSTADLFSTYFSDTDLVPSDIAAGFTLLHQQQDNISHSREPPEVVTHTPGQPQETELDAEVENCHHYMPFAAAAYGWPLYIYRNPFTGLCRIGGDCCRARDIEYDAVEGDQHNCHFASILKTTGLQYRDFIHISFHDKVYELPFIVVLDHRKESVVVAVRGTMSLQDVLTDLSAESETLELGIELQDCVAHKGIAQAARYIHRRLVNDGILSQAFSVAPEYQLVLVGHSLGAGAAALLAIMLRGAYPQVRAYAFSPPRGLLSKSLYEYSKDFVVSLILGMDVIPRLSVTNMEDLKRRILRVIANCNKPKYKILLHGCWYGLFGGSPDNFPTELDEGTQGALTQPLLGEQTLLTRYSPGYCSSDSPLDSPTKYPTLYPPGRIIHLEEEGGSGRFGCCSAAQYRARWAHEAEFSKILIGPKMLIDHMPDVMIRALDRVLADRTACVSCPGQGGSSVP
Sequence of Acyl-protein thioesterase 1 (Mus musculus) (P97823 whole entry, looked up): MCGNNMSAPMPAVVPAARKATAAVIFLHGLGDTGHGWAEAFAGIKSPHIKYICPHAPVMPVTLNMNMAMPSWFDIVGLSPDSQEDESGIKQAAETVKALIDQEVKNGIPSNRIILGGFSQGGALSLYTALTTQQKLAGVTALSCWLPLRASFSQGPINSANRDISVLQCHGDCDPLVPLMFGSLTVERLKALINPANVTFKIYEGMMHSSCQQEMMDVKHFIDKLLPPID

## COc1ccccc1-c1ccc(-c2cn(C(=O)N3CCCCC3Cc3ccccc3)nn2)cc1 (stereo not given)
Abhd10
  P value: 0.961
Abhd11
  spectral counts, test compound: 23 (inactive)
Abhd11; [7]
  P value: 0.167
Abhd12
  spectral counts, test compound: 64.7 (inactive)
Abhd12; [7]
  P value: 0.512
Abhd6
  P value: 0.033
Acot1
  spectral counts, test compound: 48.3 (inactive)
Acot1; [7]
  P value: 0.802
Acot2
  spectral counts, test compound: 85 (inactive)
Acot2; [7]
  P value: 0.094
[1]
  spectral counts, test compound: 84 (inactive)
Aoah
  spectral counts, test compound: 35.7 (inactive)
Aoah; [7]
  P value: 0.389
Apeh
  spectral counts, test compound: 252 (inactive)
Apeh; [7]
  P value: 0.731
Ctsa
  spectral counts, test compound: 57.7 (inactive)
Ctsa; [7]
  P value: 0.562
Ctsg
  spectral counts, test compound: 283 (inactive)
Ctsg; [7]
  P value: 0.854
Daglb
  P value: 0.004
[2]
  spectral counts, test compound: 0
Dpp4
  spectral counts, test compound: 146 (inactive)
Dpp4; [7]
  P value: 0.754
Dpp7
  spectral counts, test compound: 61.7 (inactive)
Dpp7; [7]
  P value: 0.138
Dpp8
  spectral counts, test compound: 31.3 (inactive)
Dpp8; [7]
  P value: 0.949
Dpp9
  spectral counts, test compound: 134 (inactive)
Dpp9; [7]
  P value: 0.213
Elane
  spectral counts, test compound: 120 (inactive)
Elane; [7]
  P value: 0.837
Fam108b
  spectral counts, test compound: 24 (inactive)
Fam108b; [7]
  P value: 0.757
Fasn
  spectral counts, test compound: 178 (inactive)
Fasn; [7]
  P value: 0.517
Iah1
  spectral counts, test compound: 22.3 (inactive)
Iah1; [7]
  P value: 0.127
Kiaa1363
  spectral counts, test compound: 206 (inactive)
Kiaa1363; [7]
  P value: 0.156
Lipe
  spectral counts, test compound: 76 (inactive)
Lipe; [7]
  P value: 0.299
Lpl
  spectral counts, test compound: 20.3 (inactive)
Lpl; [7]
  P value: 0.81
Lypla1
  P value: 0.819
Lypla2
  spectral counts, test compound: 118 (inactive)
Lypla2; [7]
  P value: 0.278
Magl
  spectral counts, test compound: 5.67 (inactive)
Magl; [7]
  P value: 0.368
[3]
  spectral counts, test compound: 0
Pafah1b2
  spectral counts, test compound: 66 (inactive)
Pafah1b2; [7]
  P value: 0.317
Pafah1b3
  spectral counts, test compound: 35 (inactive)
Pafah1b3; [7]
  P value: 0.532
Pafah2
  P value: 0.491
[4]
  spectral counts, test compound: 22.3 (inactive)
Parl
  spectral counts, test compound: 20 (inactive)
Parl; [7]
  P value: 0.382
Pla2g15
  spectral counts, test compound: 15 (inactive)
Pla2g15; [7]
  P value: 0.135
Pla2g7
  P value: 0.996
[5]
  spectral counts, test compound: 97.3 (inactive)
[6]
  spectral counts, test compound: 33.7 (inactive)
Pnpla6
  spectral counts, test compound: 11.3 (inactive)
Pnpla6; [7]
  P value: 0.696
Pnpla7
  spectral counts, test compound: 34.3 (inactive)
Pnpla7; [7]
  P value: 0.536
Pnpla8
  spectral counts, test compound: 3.67 (inactive)
Pnpla8; [7]
  P value: 0.35
Prcp
  spectral counts, test compound: 133 (inactive)
Prcp; [7]
  P value: 0.736
